In patent US10369188B2, “Methods for preventing and treating pneumocystis infections” (Cidara Therapeutics, Inc., priority 2016, dated 2019):

Test system: Pneumocystis murina
Experiment: Pneumocystis murina prophylaxis study in dexamethasone-immunosuppressed mice (lung nuclei and asci counts)
Format: in vivo, C3H/HeN mice
Conditions: positive control group, 50/250 mg/kg/3x/wk, 6 weeks
Method: Briefly, the vehicle was prepared by first adding 1% Tween 20 to sterile phosphate-buffered saline (PBS) and then adding DMSO for a 10% DMSO in 1% Tween 20 in sterile PBS solution. […] For the 20 mg/kg/d dose, the drug was dissolved in vehicle to a concentration of 2.4 mg/ml. The mice then received 0.48 mg in a 200 μl dose. The drug was stored at −20° C. until initiation of dosage. The drug was prepared fresh for every two days of dosing.
C3H/HeN mice (Charles River) were infected with P. murina by intranasal inoculation of P. murina organisms at 2×106/50 μl from our liquid nitrogen repository. Prior to inoculation, the P. murina organisms were pre-incubated overnight in RPMI 1640 medium supplemented with calf serum and antibiotics to eliminate any bacterial contamination. […] Slides were made from the lung homogenates at different dilutions and stained with Diff-Quik to quantify the trophic forms and cresyl echt violet to quantify the asci.
Efficacy is based on the reduction of organism burden between the treatment groups and the negative control group as determined by microscopic evaluation. The nuclei and asci counts for each lung are log transformed and statistical analysis is determined by the analysis of variance (ANOVA); individual groups are compared by the Student-Newman-Keuls t test for multiple comparisons using GraphPad Prism. […]

Q: Which “asci observed by microscopic evaluation” value does the source give for trimethoprim/sulfamethoxazole [TMP/SMX] here?
A: The value was “no asci observed”.

Q: What about the “nuclei seen by microscopic evaluation” value of the same substance?
A: Its value is “no nuclei seen”.
